# Results: US20240173432A1, “Compositions and Methods for Treatment of Myotonic Dystrophy Type 1 with CRISPR/SluCas9” (Vertex Pharmaceuticals Incorporated, priority 2021, published 2024)
# Experiments:
# [1] = test system: CUG foci in primary DM1 patient myoblasts; assay: Dual-cut screening: FISH staining of CUG RNA foci; type: cell-based, human; conditions: sgRNA pair, primary DM1 patient myoblasts; for % of CUG foci free nuclei (DNA-PKi): 3 μM DNA-PKi Compound 6 for 48 hours; for % of CUG foci free nuclei (Vehicle): vehicle (DMSO)
# Summary of the method: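 SluCas9 RNPs (protein:sgRNA 1:3; 20 pmol SluCas9 + 60 pmol sgRNA per guide, paired 1:1) nucleofected into primary DM1 patient myoblasts, then DMSO or 3 μM DNA-PKi Compound 6 for 48 h. At 72 h post-nucleofection cells fixed, FISH-stained with Cy3-PNA(CAG)5 probe plus anti-MBNL1 and Hoechst; % CUG foci-free nuclei by high-content confocal imaging.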
# [2] = test system: CTG repeat in the 3′ UTR of human DMPK gene; assay: Dual-cut screening: CTG repeat excision efficiency by loss-of-signal ddPCR; type: cell-based; conditions: sgRNA pair, primary DM1 patient myoblasts; for Excision efficiency (by ddPCR): 3 μM DNA-PKi Compound 6 for 48 hours; for Excision efficiency by ddPCR (Vehicle): vehicle (DMSO)
# Summary of the method: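 Upstream and downstream SluCas9 RNPs (20 pmol protein, 60 pmol sgRNA each) mixed 1:1 and nucleofected into primary DM1 patient myoblasts, then treated 48 h with DMSO or 3 μM DNA-PKi Compound 6. Genomic DNA taken 72 h post-nucleofection; excision read as loss of target signal by ddPCR versus a DMPK exon 1 reference.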
Substance,% of CUG foci free nuclei (DNA-PKi) [1] [%],% of CUG foci free nuclei (Vehicle) [1] [%],Excision efficiency (by ddPCR) [2],Excision efficiency by ddPCR (Vehicle) [2]
"SluU62 + SluD48 (guide 1 AGGACCCTTCGAGCCCCGTTCG; guide 2 GAGAGCAGCGCAAGTGAGGAGG; guide RNA; listed as DNA, chemistry not fully specified)",88.08,54.22,66.36,35.6
"SluU62 + SluD56 (guide 1 AGGACCCTTCGAGCCCCGTTCG; guide 2 CCAGCCGGCTCCGCCCGCTTCG; guide RNA; listed as DNA, chemistry not fully specified)",84.3,36.42,61.21,32.08
"SluU62 + SluD68 (guide 1 AGGACCCTTCGAGCCCCGTTCG; guide 2 CCTGTAGCCTGTCAGCGAGTCG; guide RNA; listed as DNA, chemistry not fully specified)",87.71,49.06,63.55,33.08
"SluU62 + SluD73 (guide 1 AGGACCCTTCGAGCCCCGTTCG; guide 2 CCAAAACGTGGATTGGGGTTGT; guide RNA; listed as DNA, chemistry not fully specified)",88.13,52.87,65.89,38.11
"SluU62 + SluD83 (guide 1 AGGACCCTTCGAGCCCCGTTCG; guide 2 GTGGGGACAGACAATAAATACC; guide RNA; listed as DNA, chemistry not fully specified)",88.94,56.65,68.69,43.14
"SluU62 + SluD100 (guide 1 AGGACCCTTCGAGCCCCGTTCG; guide 2 GTCCAGAGCTTTGGGCAGATGG; guide RNA; listed as DNA, chemistry not fully specified)",88.35,53.45,64.02,37.11
"SluU63 + SluD32 (guide 1 GGGGCTCGAAGGGTCCTTGTAG; guide 2 CTTGTGCATGACGCCCTGCTCT; guide RNA; listed as DNA, chemistry not fully specified)",89.04,75.26,94.81,60.75
"SluU63 + SluD34 (guide 1 GGGGCTCGAAGGGTCCTTGTAG; guide 2 CGCGCCAGACGCTCCCCAGAGC; guide RNA; listed as DNA, chemistry not fully specified)",87.25,77.85,93.5,63.27
"SluU63 + SluD48 (guide 1 GGGGCTCGAAGGGTCCTTGTAG; guide 2 GAGAGCAGCGCAAGTGAGGAGG; guide RNA; listed as DNA, chemistry not fully specified)",90.03,73.73,94.25,63.77
"SluU63 + SluD56 (guide 1 GGGGCTCGAAGGGTCCTTGTAG; guide 2 CCAGCCGGCTCCGCCCGCTTCG; guide RNA; listed as DNA, chemistry not fully specified)",88.12,60.91,90.05,50.69
"SluU63 + SluD68 (guide 1 GGGGCTCGAAGGGTCCTTGTAG; guide 2 CCTGTAGCCTGTCAGCGAGTCG; guide RNA; listed as DNA, chemistry not fully specified)",90.625,71.74,93.64,57.23
"SluU63 + SluD73 (guide 1 GGGGCTCGAAGGGTCCTTGTAG; guide 2 CCAAAACGTGGATTGGGGTTGT; guide RNA; listed as DNA, chemistry not fully specified)",90.58,70.03,95.51,63.27
"SluU63 + SluD83 (guide 1 GGGGCTCGAAGGGTCCTTGTAG; guide 2 GTGGGGACAGACAATAAATACC; guide RNA; listed as DNA, chemistry not fully specified)",89.8,74.11,93.27,58.74
"SluU63 + SluD100 (guide 1 GGGGCTCGAAGGGTCCTTGTAG; guide 2 GTCCAGAGCTTTGGGCAGATGG; guide RNA; listed as DNA, chemistry not fully specified)",89.97,73.15,91.5,58.24
"SluU64 + SluD32 (guide 1 GGGCTCGAAGGGTCCTTGTAGC; guide 2 CTTGTGCATGACGCCCTGCTCT; guide RNA; listed as DNA, chemistry not fully specified)",89.99,77.6,85.56,60.75
"SluU64 + SluD34 (guide 1 GGGCTCGAAGGGTCCTTGTAGC; guide 2 CGCGCCAGACGCTCCCCAGAGC; guide RNA; listed as DNA, chemistry not fully specified)",91.45,83.68,79.91,76.35
"SluU64 + SluD48 (guide 1 GGGCTCGAAGGGTCCTTGTAGC; guide 2 GAGAGCAGCGCAAGTGAGGAGG; guide RNA; listed as DNA, chemistry not fully specified)",88.44,75.45,80.84,47.67
"SluU64 + SluD56 (guide 1 GGGCTCGAAGGGTCCTTGTAGC; guide 2 CCAGCCGGCTCCGCCCGCTTCG; guide RNA; listed as DNA, chemistry not fully specified)",87.6,60.36,67.76,42.14
"SluU64 + SluD68 (guide 1 GGGCTCGAAGGGTCCTTGTAGC; guide 2 CCTGTAGCCTGTCAGCGAGTCG; guide RNA; listed as DNA, chemistry not fully specified)",89.56,74.94,72.9,46.16
